Laboratory results from ChEMBL document CHEMBL5518218, “Discovery of Novel PD-L1 Small-Molecular Inhibitors with Potent In Vivo Anti-tumor Immune Activity” (J Med Chem, 2024).
Values after ≈ are worked out from the molar mass of the structure shown. Active and inactive are the calls of the source. The calls are words filed in the database; no cut-off is given here.

What was measured:
Jurkat = test: Cytotoxicity against human Jurkat cells expressing PD-1 assessed as reduction in cell viability at 50 uM incubated for 6 hrs by CCK-8 assay; assay type: functional, cell-based
[1] = biological target: T1, Programmed cell death protein 1/Programmed cell death 1 ligand 1 (Homo sapiens, UniProt Q9NZQ7); test: Inhibition of PD-1/PD-L1 interaction (unknown origin) incubated for 15 min by HTRF assay; assay type: protein-complex assay
[2] = biological target: Programmed cell death protein 1 (Homo sapiens) (UniProt Q15116); test: Inhibition of human PD-1 expressed in Jurkat T cells co-transfected with NFAT by automated microplate spectrophotometer analysis; assay type: cell-based
CHO-K1 [3] = test: Cytotoxicity against […] cells expressing PD-L1 assessed as reduction in cell viability at 50 uM incubated for 6 hrs by CCK-8 assay; assay type: toxicity, cell-based, Cricetulus griseus; settings: chinese hamster, cho-k1, 6 h
[4] = biological target: T1, Programmed cell death protein 1/Programmed cell death 1 ligand 1; test: (§1) Inhibition of interaction of human PD-1 expressed in Jurkat T cells co-transfected with NFAT/human PD-L1 expressed in CHO-K1 cells co-expressing aAPC preincubated with CHO-K1 cells followed by Jurkat cell addition and measured after 6 hrs by automated microplate spectrophotometer analysis; assay type: cell-based
[5] = biological target: T2, Programmed cell death protein 1/Programmed cell death 1 ligand 1 (Homo sapiens, UniProt Q15116+Q9NZQ7); test: as §1, with “aAPC assessed as maximum relative light unit” for “aAPC”; assay type: cell-based
[6] = biological target: Programmed cell death 1 ligand 1 (Homo sapiens, UniProt Q9NZQ7); test: Binding affinity to his-tagged human PD-L1 assessed as dissociation constant by SPR analysis
MC-38 [7] = test: Antitumor activity against mouse MC38 cells implanted in C57BL/6J mouse assessed as tumor growth inhibition at 5 mg/kg, po measured for 20 days; assay type: functional; settings: MC-38, 480 h, time 20 day, read-out: TGI
[8] = biological target: T2, Programmed cell death protein 1/Programmed cell death 1 ligand 1; test: as §1; assay type: cell-based; settings: cho-k1
[9] = biological target: Programmed cell death 1 ligand 1 (Mus musculus, UniProt Q9EP73); test: Binding affinity to his-tagged mouse PD-L1 assessed as dissociation constant by SPR analysis
PBMC [10] = test: Induction of antitumor immunity in human PBMC cells expressing PD-L1 assessed as increase in IFN-gamma expression incubated for 12 hrs by ELISA analysis; assay type: functional, cell-based; settings: dose 0.1-10 µM
[11] = Water solubility of the compound; assay type: physicochemical
PBMC [12] = test: Induction of antitumor immunity in human PBMC cells expressing PD-L1 assessed as increase in IL-2 expression incubated for 12 hrs by ELISA analysis; assay type: functional, cell-based; settings: dose 0.1-10 µM
[13] = Stability in human liver microsomes assessed as half life; assay type: ADME, Microsome
[14] = Half life in Sprague-Dawley rat at 50 mg/kg, po measured upto 24 hrs by LC-MS/MS analysis; assay type: ADME, organism-based; settings: in vivo
CT26 = test: Cytotoxicity against mouse CT26 cells assessed as effect on cell viability at 0.07 to 150 uM incubated for 48 hrs by CCK-8 assay; assay type: functional, cell-based; settings: dose 0.07-150 µM
CHO-K1 [15] = test: Induction of PD-L1 internalization in CHO-K1 cells assessed as increase in PD-L1 concentration in nucleus at 10 uM incubated for 12 hrs by DIL-staining based confocal microscopic analysis analysis; assay type: functional, cell-based; settings: Cricetulus griseus
[16] = Cmax in Sprague-Dawley rat at 50 mg/kg, po measured upto 24 hrs by LC-MS/MS analysis; assay type: ADME, organism-based; settings: in vivo
[17] = Lipophilicity, log D of the compound at pH 7.4; assay type: physicochemical; settings: buffer
CHO-K1 [18] = test: Reduction in cell surface PD-L1 expression in CHO-K1 cells expressing aAPC incubated for 24 hrs by flow cytometry analysis; assay type: functional, cell-based; settings: Cricetulus griseus, dose 0.1-10 µM
[19] = biological target: Voltage-gated inwardly rectifying potassium channel KCNH2 (Homo sapiens, UniProt Q12809); test: Inhibition of hERG upto 30 uM; assay type: toxicity
[20] = Mutagenicity in Salmonella typhimurium TA100 by mini-Ames test; assay type: toxicity; settings: salmonella enterica subsp. enterica serovar typhimurium
CHO-K1 [21] = test: Induction of PD-L1 internalization in CHO-K1 cells assessed as increase in PD-L1 concentration in cytoplasm at 10 uM incubated for 12 hrs by DIL-staining based confocal microscopic analysis analysis; assay type: functional, cell-based; settings: Cricetulus griseus
MC-38 [22] = test: Cytotoxicity against mouse MC38 cells assessed as effect on cell viability at 0.07 to 150 uM incubated for 48 hrs by CCK-8 assay; assay type: functional, cell-based; settings: dose 0.07-150 µM
CHO-K1 [23] = test: Reduction in cell surface PD-L1 expression in CHO-K1 cells expressing aAPC at 10 uM incubated for 24 hrs by immunofluorescence based microscopic analysis; assay type: functional; settings: Cricetulus griseus
[24] = Tmax in Sprague-Dawley rat at 50 mg/kg, po measured upto 24 hrs by LC-MS/MS analysis; assay type: ADME, organism-based; settings: in vivo
PBMC [25] = test: Induction of antitumor immunity in human PBMC cells assessed as increase in IFN-gamma expression at 0.1 to 10 uM incubated for 12 hrs by ELISA analysis; assay type: functional, cell-based; settings: dose 0.1-10 µM
[26] = AUC (0 to t) in Sprague-Dawley rat at 50 mg/kg, po measured upto 24 hrs by LC-MS/MS analysis; assay type: ADME, organism-based; settings: in vivo
[27] = Mutagenicity in Salmonella typhimurium TA98 by mini-Ames test; assay type: toxicity; settings: salmonella enterica subsp. enterica serovar typhimurium

Sequence of Programmed cell death 1 ligand 1 (Homo sapiens, UniProt Q9NZQ7) (Q9NZQ7 whole entry): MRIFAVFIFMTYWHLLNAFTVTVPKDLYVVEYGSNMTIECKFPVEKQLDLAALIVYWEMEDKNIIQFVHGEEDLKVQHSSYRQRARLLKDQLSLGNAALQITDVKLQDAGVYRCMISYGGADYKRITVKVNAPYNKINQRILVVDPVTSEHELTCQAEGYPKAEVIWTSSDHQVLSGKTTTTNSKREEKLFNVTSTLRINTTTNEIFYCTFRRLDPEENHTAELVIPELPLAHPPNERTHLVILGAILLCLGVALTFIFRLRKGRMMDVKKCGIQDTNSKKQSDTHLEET
Sequence of Programmed cell death protein 1 (Homo sapiens) (Q15116 whole entry): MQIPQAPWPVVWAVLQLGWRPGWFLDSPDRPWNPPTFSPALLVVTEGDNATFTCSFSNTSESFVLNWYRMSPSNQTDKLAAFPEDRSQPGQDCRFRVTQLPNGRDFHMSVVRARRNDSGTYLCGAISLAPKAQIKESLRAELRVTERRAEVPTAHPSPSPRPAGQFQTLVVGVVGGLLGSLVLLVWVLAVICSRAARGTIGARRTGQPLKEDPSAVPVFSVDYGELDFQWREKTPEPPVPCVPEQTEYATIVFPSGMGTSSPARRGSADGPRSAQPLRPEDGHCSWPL
T1 sequence (Q15116 whole entry): as above
T1 sequence (Q9NZQ7 whole entry): as the sequence (Q9NZQ7 whole entry) above
T2 sequence (Q15116 whole entry): as the sequence (Q15116 whole entry) above
T2 sequence (Q9NZQ7 whole entry): as the sequence (Q9NZQ7 whole entry) above
Sequence of Programmed cell death 1 ligand 1 (Mus musculus, UniProt Q9EP73) (Q9EP73 whole entry): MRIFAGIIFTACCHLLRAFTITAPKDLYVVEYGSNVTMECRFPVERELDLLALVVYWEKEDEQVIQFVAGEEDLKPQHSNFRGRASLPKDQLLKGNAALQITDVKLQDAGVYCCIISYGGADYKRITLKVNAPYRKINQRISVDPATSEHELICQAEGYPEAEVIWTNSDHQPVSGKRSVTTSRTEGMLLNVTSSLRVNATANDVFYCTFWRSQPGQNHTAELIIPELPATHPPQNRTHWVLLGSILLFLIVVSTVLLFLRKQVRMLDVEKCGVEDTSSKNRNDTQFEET
Sequence of Voltage-gated inwardly rectifying potassium channel KCNH2 (Q12809 whole entry): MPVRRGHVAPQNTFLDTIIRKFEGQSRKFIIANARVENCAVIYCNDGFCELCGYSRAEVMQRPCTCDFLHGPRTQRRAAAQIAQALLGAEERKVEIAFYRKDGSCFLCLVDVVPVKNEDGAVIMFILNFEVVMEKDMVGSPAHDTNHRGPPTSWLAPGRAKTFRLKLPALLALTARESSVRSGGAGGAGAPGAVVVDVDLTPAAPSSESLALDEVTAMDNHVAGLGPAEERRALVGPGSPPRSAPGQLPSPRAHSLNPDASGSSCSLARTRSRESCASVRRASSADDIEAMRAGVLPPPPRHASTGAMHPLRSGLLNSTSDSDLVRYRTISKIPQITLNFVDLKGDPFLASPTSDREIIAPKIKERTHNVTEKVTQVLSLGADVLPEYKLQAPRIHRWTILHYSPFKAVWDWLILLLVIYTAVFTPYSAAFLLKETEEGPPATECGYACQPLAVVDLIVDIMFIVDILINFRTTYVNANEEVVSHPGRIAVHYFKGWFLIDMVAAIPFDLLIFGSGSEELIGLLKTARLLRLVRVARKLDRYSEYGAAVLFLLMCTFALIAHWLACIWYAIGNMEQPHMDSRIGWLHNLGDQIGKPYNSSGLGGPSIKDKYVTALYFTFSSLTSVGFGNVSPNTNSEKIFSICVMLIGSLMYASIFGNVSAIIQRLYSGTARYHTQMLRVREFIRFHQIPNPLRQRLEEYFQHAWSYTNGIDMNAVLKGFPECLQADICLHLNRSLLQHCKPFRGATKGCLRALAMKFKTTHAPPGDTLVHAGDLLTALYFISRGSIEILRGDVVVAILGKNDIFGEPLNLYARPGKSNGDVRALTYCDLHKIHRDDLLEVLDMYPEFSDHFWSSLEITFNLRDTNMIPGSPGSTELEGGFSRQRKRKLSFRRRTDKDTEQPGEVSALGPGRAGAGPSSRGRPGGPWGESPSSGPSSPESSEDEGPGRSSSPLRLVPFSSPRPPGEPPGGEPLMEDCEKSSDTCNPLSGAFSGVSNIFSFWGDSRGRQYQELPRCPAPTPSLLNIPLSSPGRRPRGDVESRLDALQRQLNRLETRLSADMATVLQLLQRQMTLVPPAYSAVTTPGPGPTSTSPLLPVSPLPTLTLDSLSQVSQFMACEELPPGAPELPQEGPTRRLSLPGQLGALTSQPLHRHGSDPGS

O=C(O)[C@@H](CO)NCc1cc(Cl)c(OCc2cccc(-c3cccc(OCCCN4CCC(O)CC4)c3)c2Cl)cc1OCc1ccc2nonc2c1
Activity (Jurkat): Active | IC50 [1]: 2.02 nM | inhibition [2]: inactive | Activity (CHO-K1 [3]): Non-Toxic | EC50 [4]: 158 nM | Activity [5]: 2.2 RLU | Kd [6]: 22.9 nM

O=C(O)[C@@H](CO)NCc1cc(Cl)c(OCc2cccc(-c3cccc(OCCCCN4CCOCC4)c3)c2F)cc1OCc1ccc2nonc2c1
IC50 [1]: 21.2 nM

O=C(O)[C@@H](CO)NCc1cc(Cl)c(OCc2cccc(-c3ccccc3)c2Br)cc1OCc1ccc2nonc2c1 [listing 1 of 3 here]
inhibition in vivo at 5 mg/kg (MC-38 [7]): 52.5%

O=C(O)[C@@H](CO)NCc1cc(Cl)c(OCc2cccc(-c3cccc(OCCCNS(=O)(=O)N4CCOCC4)c3)c2Cl)cc1OCc1ccc2nonc2c1
IC50 [1]: 87.6 nM

CCN(CC)C(=O)CCOc1cccc(-c2cccc(COc3cc(OCc4ccc5nonc5c4)c(CN[C@H](CO)C(=O)O)cc3Cl)c2Cl)c1
Activity (Jurkat): Active | IC50 [1]: 187 nM | Activity (CHO-K1 [3]): Non-Toxic | EC50 [8]: Not Active

COP(=O)(NCCCOc1cccc(-c2cccc(COc3cc(OCc4ccc5nonc5c4)c(CN[C@H](CO)C(=O)O)cc3Cl)c2Cl)c1)OC
IC50 [1]: 746 nM

O=C(O)[C@@H](CO)NCc1cc(Cl)c(OCc2cccc(-c3cccc(OCCCN4CCC(O)CC4)c3)c2F)cc1OCc1ccc2nonc2c1
Activity (Jurkat): Active | Kd [9]: 31.8 nM | Activity (PBMC [10]): Dose-Dependent Effect | solubility [11]: 23.6 µM (≈ 17.4 µg/mL) | Activity (PBMC [12]): Dose-Dependent Effect | half-life [13]: 1.95 h | half-life [14]: 5.3 h | Activity (CT26): inactive | Activity (CHO-K1 [15]): Active | Cmax [16]: 45.6 ng/mL | logD [17]: 0.67 | Activity (CHO-K1 [18]): Dose-Dependent Effect | inhibition (INH) [19]: Not Active | IC50 [1]: 13 nM | inhibition [2]: inactive | Activity (CHO-K1 [3]): Non-Toxic | Activity [20]: Non-Toxic | Activity (CHO-K1 [21]): Active | EC50 [4]: 153 nM | Activity (MC-38 [22]): inactive | Activity (CHO-K1 [23]): Active | Tmax [24]: 6 min | Activity (PBMC [25]): inactive | Activity [5]: 2.3 RLU | Kd [6]: 2 nM | AUC(0-t) at 24 h [26]: 82.1 ng·h/mL | Activity [27]: Non-Toxic

O=C(O)[C@@H](CO)NCc1cc(Cl)c(OCc2cccc(-c3cccc(OCCCNCCN4CCCCC4)c3)c2Cl)cc1OCc1ccc2nonc2c1
IC50 [1]: 23.8 nM

O=C(O)[C@@H](CO)NCc1cc(Cl)c(OCc2cccc(-c3cccc(OCCCCN4CCNCC4)c3)c2Cl)cc1OCc1ccc2nonc2c1
IC50 [1]: 42.1 nM

O=C(O)[C@@H](CO)NCc1cc(Cl)c(OCc2cccc(-c3ccccc3)c2Br)cc1OCc1ccc2nonc2c1 [listing 2 of 3 here]
Activity (CHO-K1 [3]): Non-Toxic

CCN(CC)CCCOc1cccc(-c2cccc(COc3cc(OCc4ccc5nonc5c4)c(CN[C@H](CO)C(=O)O)cc3Cl)c2Cl)c1
IC50 [1]: 78.3 nM

O=C(O)[C@@H](CO)NCc1cc(Cl)c(OCc2cccc(-c3cccc(OCCCCN4CCC(O)CC4)c3)c2F)cc1OCc1ccc2nonc2c1
IC50 [1]: 3.1 nM

O=C(O)[C@@H](CO)NCc1cc(Cl)c(OCc2cccc(-c3cccc(OCCN4CCC(O)CC4)c3)c2Cl)cc1OCc1ccc2nonc2c1
IC50 [1]: 40.5 nM

O=C(O)[C@@H](CO)NCc1cc(Cl)c(OCc2cccc(-c3cccc(OCCN4CCOCC4)c3)c2Cl)cc1OCc1ccc2nonc2c1
IC50 [1]: 121 nM

O=C(O)[C@@H](CO)NCc1cc(Cl)c(OCc2cccc(-c3cccc(OCCN(CCO)CCO)c3)c2Cl)cc1OCc1ccc2nonc2c1
IC50 [1]: 109 nM

O=C(O)[C@@H](CO)NCc1cc(Cl)c(OCc2cccc(-c3cccc(OCCCN4CCOCC4)c3)c2F)cc1OCc1ccc2nonc2c1
IC50 [1]: 12.5 nM

O=C(O)[C@@H](CO)NCc1cc(Cl)c(OCc2cccc(-c3cccc(OCCCCN4CCC(O)CC4)c3)c2Cl)cc1OCc1ccc2nonc2c1
IC50 [1]: 3.3 nM

O=C(O)[C@@H](CO)NCc1cc(Cl)c(OCc2cccc(-c3cccc(OCCCN(CCO)CCO)c3)c2Cl)cc1OCc1ccc2nonc2c1
Activity (Jurkat): Active | IC50 [1]: 5.4 nM | inhibition [2]: inactive | Activity (CHO-K1 [3]): Non-Toxic | EC50 [4]: 353 nM | Activity [5]: 2 RLU | Kd [6]: 34.1 nM

O=C(O)[C@@H](CO)NCc1cc(Cl)c(OCc2cccc(-c3cccc(OCCCCN4CCC(CO)CC4)c3)c2Cl)cc1OCc1ccc2nonc2c1
IC50 [1]: 3.5 nM

O=C(O)[C@@H](CO)NCc1cc(Cl)c(OCc2cccc(-c3cccc(OCCCNCCO)c3)c2Cl)cc1OCc1ccc2nonc2c1
IC50 [1]: 6.1 nM

O=C(O)[C@@H](CO)NCc1cc(Cl)c(OCc2cccc(-c3cccc(OCCCN4CCOCC4)c3)c2Cl)cc1OCc1ccc2nonc2c1
IC50 [1]: 34.7 nM

O=C(O)[C@@H](CO)NCc1cc(Cl)c(OCc2cccc(-c3ccccc3)c2Br)cc1OCc1ccc2nonc2c1 [listing 3 of 3 here]
Activity (Jurkat): Active | inhibition [2]: inactive | Activity [5]: 1.8 RLU

O=C(O)C1CCN(CCCCOc2cccc(-c3cccc(COc4cc(OCc5ccc6nonc6c5)c(CN[C@H](CO)C(=O)O)cc4Cl)c3Cl)c2)CC1
IC50 [1]: 8.8 nM

O=C(O)[C@@H](CO)NCc1cc(Cl)c(OCc2cccc(-c3cccc(OCCCCN(CCO)CCO)c3)c2Cl)cc1OCc1ccc2nonc2c1
IC50 [1]: 8.2 nM
